Target: bovine cardiac myosin (Bos taurus, UniProt Q9BE39)
Test: Myosin activation assay (PK/LDH-coupled ATPase, bovine cardiac myofibrils)
Type: biochemical
Conditions: AC20 = concentration at which total response is increased by twenty percent
In short: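 Skinned bovine cardiac myofibrils (1 mg/mL) in PIPES/MgCl2 buffer pH 6.8 at free Ca2+ giving ~50% (pCa ~6) or <5% (pCa 10) activation, with 50 μM ATP and 3.3% DMSO. ATPase rate from NADH absorbance at 340 nm (PK/LDH coupling) over 15 min at ambient temperature. AC20/AC50 from a four-parameter fit of DMSO-normalised rates.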

Sequence of bovine cardiac myosin (Q9BE39 whole entry): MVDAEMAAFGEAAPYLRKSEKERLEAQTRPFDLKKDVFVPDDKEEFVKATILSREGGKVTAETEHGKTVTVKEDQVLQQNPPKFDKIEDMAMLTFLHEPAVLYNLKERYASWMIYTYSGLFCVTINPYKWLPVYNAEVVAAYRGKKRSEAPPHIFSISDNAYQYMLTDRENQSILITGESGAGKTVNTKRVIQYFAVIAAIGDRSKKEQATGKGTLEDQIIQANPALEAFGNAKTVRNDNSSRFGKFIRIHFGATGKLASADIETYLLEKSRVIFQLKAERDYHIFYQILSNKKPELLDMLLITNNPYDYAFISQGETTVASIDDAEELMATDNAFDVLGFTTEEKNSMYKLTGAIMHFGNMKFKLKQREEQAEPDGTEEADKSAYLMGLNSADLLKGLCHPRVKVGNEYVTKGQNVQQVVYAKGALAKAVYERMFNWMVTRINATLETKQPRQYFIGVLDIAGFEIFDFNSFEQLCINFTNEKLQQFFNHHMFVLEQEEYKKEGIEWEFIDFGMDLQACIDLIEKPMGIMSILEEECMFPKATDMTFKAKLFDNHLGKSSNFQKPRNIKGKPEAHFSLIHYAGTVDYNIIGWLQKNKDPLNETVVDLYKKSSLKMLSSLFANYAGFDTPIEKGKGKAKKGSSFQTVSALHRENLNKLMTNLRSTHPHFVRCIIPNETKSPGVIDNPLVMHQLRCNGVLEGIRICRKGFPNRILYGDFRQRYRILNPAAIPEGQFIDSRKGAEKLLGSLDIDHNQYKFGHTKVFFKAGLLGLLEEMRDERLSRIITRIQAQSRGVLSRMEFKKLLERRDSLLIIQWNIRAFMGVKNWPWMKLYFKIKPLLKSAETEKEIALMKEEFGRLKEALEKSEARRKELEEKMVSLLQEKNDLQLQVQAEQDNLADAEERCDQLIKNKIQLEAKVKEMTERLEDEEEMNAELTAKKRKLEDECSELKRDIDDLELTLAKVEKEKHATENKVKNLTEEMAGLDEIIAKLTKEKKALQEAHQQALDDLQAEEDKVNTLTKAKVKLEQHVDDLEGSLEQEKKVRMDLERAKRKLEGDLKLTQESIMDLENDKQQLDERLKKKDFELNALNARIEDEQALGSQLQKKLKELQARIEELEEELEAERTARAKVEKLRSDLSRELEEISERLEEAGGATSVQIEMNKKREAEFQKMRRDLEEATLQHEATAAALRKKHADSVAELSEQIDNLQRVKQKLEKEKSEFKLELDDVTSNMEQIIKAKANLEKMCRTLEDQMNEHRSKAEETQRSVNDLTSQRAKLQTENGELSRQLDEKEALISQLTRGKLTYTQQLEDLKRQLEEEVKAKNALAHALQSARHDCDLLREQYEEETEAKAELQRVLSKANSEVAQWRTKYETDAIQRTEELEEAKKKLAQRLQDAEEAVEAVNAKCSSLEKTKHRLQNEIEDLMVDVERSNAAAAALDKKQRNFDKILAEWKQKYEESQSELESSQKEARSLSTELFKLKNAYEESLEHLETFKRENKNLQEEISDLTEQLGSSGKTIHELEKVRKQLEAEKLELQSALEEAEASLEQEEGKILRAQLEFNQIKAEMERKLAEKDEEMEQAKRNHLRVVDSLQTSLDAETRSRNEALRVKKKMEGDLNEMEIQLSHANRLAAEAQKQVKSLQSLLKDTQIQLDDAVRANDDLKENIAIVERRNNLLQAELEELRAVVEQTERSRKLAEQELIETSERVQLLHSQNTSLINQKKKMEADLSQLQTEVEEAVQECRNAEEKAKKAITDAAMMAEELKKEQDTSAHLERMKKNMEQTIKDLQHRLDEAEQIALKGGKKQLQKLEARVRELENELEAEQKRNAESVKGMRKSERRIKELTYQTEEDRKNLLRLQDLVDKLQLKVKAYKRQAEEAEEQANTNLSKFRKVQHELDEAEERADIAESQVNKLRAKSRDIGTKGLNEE
Sequence of bovine cardiac myosin (P85100 whole entry partner): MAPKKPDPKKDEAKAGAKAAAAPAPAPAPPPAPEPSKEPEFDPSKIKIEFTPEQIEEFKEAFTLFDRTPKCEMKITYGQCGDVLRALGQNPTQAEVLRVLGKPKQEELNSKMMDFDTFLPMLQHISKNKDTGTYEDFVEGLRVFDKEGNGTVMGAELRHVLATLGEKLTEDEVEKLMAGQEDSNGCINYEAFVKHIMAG
Sequence of bovine cardiac myosin (Q3SZE5 whole entry partner): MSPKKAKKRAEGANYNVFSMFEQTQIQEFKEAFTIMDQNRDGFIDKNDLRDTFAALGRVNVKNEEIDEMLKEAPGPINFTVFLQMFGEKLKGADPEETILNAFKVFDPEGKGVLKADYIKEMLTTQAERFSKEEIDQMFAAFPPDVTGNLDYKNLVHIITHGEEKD

Question: Which “Myosin Activation (AC20)” value does the source give for `Cn1nc(C(F)(F)F)cc1S(=O)(=O)C(C)(C)C1CCN(C(=O)Nc2ccnc(F)c2)CC1` [Compound 127, N-(2-fluoropyridin-4-yl)-4-(2-((1-methyl-3-(trifluoromethyl)-1H-pyrazol-5-yl)sulfonyl)propan-2-yl)piperidine-1-carboxamide] here?
Answer: The value was “++ (++ represents myosin activation value AC20 from 2 μM-5 μM)”.

Question: For `Cn1nccc1S(=O)(=O)C(C)(C)C1CCN(C(=O)Nc2ccon2)CC1` [Compound 128, N-(isoxazol-3-yl)-4-(2-((1-methyl-1H-pyrazol-5-yl)sulfonyl)propan-2-yl)piperidine-1-carboxamide], which “Myosin Activation (AC20)” value is on record?
Answer: The value was “++ (++ represents myosin activation value AC20 from 2 μM-5 μM)”.

Question: With `Cc1ccc(NC(=O)N2CCC(C(C)(C)S(=O)(=O)c3cc(C(F)(F)F)nn3C)CC2)cn1` [Compound 130, 4-(2-((1-methyl-3-(trifluoromethyl)-1H-pyrazol-5-yl)sulfonyl)propan-2-yl)-N-(6-methylpyridin-3-yl)piperidine-1-carboxamide] as the compound, how does the “Myosin Activation (AC20)” value read?
Answer: Its value is “++ (++ represents myosin activation value AC20 from 2 μM-5 μM)”.

Question: `CC(C)(C1CCN(C(=O)Nc2cnccn2)CC1)S(=O)(=O)c1cccc(F)c1` [Compound 131, 4-(2-((3-fluorophenyl)sulfonyl)propan-2-yl)-N-(pyrazin-2-yl)piperidine-1-carboxamide] was tested. Which “Myosin Activation (AC20)” value did it give?
Answer: Its value is “+ (+ represents myosin activation value AC20 > 5 μM)”.

Question: Which “Myosin Activation (AC20)” value does the source give for `CC(C)(C1CCN(C(=O)Nc2cncnc2)CC1)S(=O)(=O)c1cccc(F)c1` [Compound 132, 4-(2-((3-fluorophenyl)sulfonyl)propan-2-yl)-N-(pyrimidin-5-yl)piperidine-1-carboxamide] here?
Answer: The value was “+ (+ represents myosin activation value AC20 > 5 μM)”.

Question: With `CC(C)(C1CCN(C(=O)Nc2cccnc2)CC1)S(=O)(=O)c1cccc(F)c1` [Compound 133, 4-(2-((3-fluorophenyl)sulfonyl)propan-2-yl)-N-(pyridin-3-yl)piperidine-1-carboxamide] as the compound, how does the “Myosin Activation (AC20)” value read?
Answer: Its value is “++ (++ represents myosin activation value AC20 from 2 μM-5 μM)”.

Question: For `Cn1nccc1S(=O)(=O)C(C)(C)C1CCN(C(=O)Nc2ccnc(F)c2)CC1` [Compound 134, N-(2-fluoropyridin-4-yl)-4-(2-((1-methyl-1H-pyrazol-5-yl)sulfonyl)propan-2-yl)piperidine-1-carboxamide], which “Myosin Activation (AC20)” value is on record?
Answer: Its value is “++ (++ represents myosin activation value AC20 from 2 μM-5 μM)”.

Question: Which “Myosin Activation (AC20)” value does the source give for `Cc1ccc(NC(=O)N2CCC(C(C)(C)S(=O)(=O)c3ccnn3C)CC2)cn1` [Compound 135, 4-(2-((1-methyl-1H-pyrazol-5-yl)sulfonyl)propan-2-yl)-N-(6-methylpyridin-3-yl)piperidine-1-carboxamide] here?
Answer: Its value is “+ (+ represents myosin activation value AC20 > 5 μM)”.

Question: Which “Myosin Activation (AC20)” value does the source give for `Cn1nccc1NC(=O)N1CCC(C(C)(C)S(=O)(=O)c2cccc(F)c2)CC1` [Compound 136, 4-(2-((3-fluorophenyl)sulfonyl)propan-2-yl)-N-(1-methyl-1H-pyrazol-5-yl)piperidine-1-carboxamide] here?
Answer: Its value is “+ (+ represents myosin activation value AC20 > 5 μM)”.

Question: For `Cn1nc(C(F)(F)F)cc1S(=O)(=O)C(C)(C)C1CCN(C(=O)Nc2ccnnc2)CC1` [Compound 137, 4-(2-((1-methyl-3-(trifluoromethyl)-1H-pyrazol-5-yl)sulfonyl)propan-2-yl)-N-(pyridazin-4-yl)piperidine-1-carboxamide], which “Myosin Activation (AC20)” value is on record?
Answer: Its value is “+++ (+++ represents myosin activation value AC20 < 2 μM)”.

Question: Which “Myosin Activation (AC20)” value does the source give for `Cn1ccc(NC(=O)N2CCC(C(C)(C)S(=O)(=O)c3cccc(F)c3)CC2)n1` [Compound 138, 4-(2-((3-fluorophenyl)sulfonyl)propan-2-yl)-N-(1-methyl-1H-pyrazol-3-yl)piperidine-1-carboxamide] here?
Answer: The value was “+ (+ represents myosin activation value AC20 > 5 μM)”.

Question: Which “Myosin Activation (AC20)” value does the source give for `Cn1cc(NC(=O)N2CCC(C(C)(C)S(=O)(=O)c3cccc(F)c3)CC2)cn1` [Compound 139, 4-(2-((3-fluorophenyl)sulfonyl)propan-2-yl)-N-(1-methyl-1H-pyrazol-4-yl)piperidine-1-carboxamide] here?
Answer: Its value is “+ (+ represents myosin activation value AC20 > 5 μM)”.

Question: With `Cn1nc(Cl)cc1S(=O)(=O)C(C)(C)C1CCN(C(=O)Nc2ccnnc2)CC1` [Compound 140, 4-(2-((3-chloro-1-methyl-1H-pyrazol-5-yl)sulfonyl)propan-2-yl)-N-(pyridazin-4-yl)piperidine-1-carboxamide] as the compound, how does the “Myosin Activation (AC20)” value read?
Answer: The value was “+++ (+++ represents myosin activation value AC20 < 2 μM)”.

Question: For `Cc1ncc(NC(=O)N2CCC(C(C)(C)S(=O)(=O)c3cccc(F)c3)CC2)cn1` [Compound 141, 4-(2-((3-fluorophenyl)sulfonyl)propan-2-yl)-N-(2-methylpyrimidin-5-yl)piperidine-1-carboxamide], which “Myosin Activation (AC20)” value is on record?
Answer: Its value is “+ (+ represents myosin activation value AC20 > 5 μM)”.

Question: How did the “Myosin Activation (AC20)” value turn out when `Cc1cc(NC(=O)N2CCC(C(C)(C)S(=O)(=O)c3cccc(F)c3)CC2)no1` [Compound 142, 4-(2-((3-fluorophenyl)sulfonyl)propan-2-yl)-N-(5-methylisoxazol-3-yl)piperidine-1-carboxamide] was run?
Answer: The value was “+ (+ represents myosin activation value AC20 > 5 μM)”.

Question: `Cc1ncc(NC(=O)N2CCC(C(C)(C)S(=O)(=O)c3cn(C)nc3C(F)F)CC2)cn1` [Compound 143, 4-(2-((3-(difluoromethyl)-1-methyl-1H-pyrazol-4-yl)sulfonyl)propan-2-yl)-N-(2-methylpyrimidin-5-yl)piperidine-1-carboxamide] was tested. Which “Myosin Activation (AC20)” value did it give?
Answer: The value was “+ (+ represents myosin activation value AC20 > 5 μM)”.

Question: For `Cc1cc(NC(=O)N2CCC(C(C)(C)S(=O)(=O)c3cn(C)nc3C(F)F)CC2)no1` [Compound 144, 4-(2-((3-(difluoromethyl)-1-methyl-1H-pyrazol-4-yl)sulfonyl)propan-2-yl)-N-(5-methylisoxazol-3-yl)piperidine-1-carboxamide], which “Myosin Activation (AC20)” value is on record?
Answer: Its value is “+ (+ represents myosin activation value AC20 > 5 μM)”.

Question: Which “Myosin Activation (AC20)” value does the source give for `Cn1cc(S(=O)(=O)C(C)(C)C2CCN(C(=O)Nc3nnco3)CC2)c(C(F)F)n1` [Compound 145, 4-(2-((3-(difluoromethyl)-1-methyl-1H-pyrazol-4-yl)sulfonyl)propan-2-yl)-N-(1,3,4-oxadiazol-2-yl)piperidine-1-carboxamide] here?
Answer: Its value is “+ (+ represents myosin activation value AC20 > 5 μM)”.

Question: Which “Myosin Activation (AC20)” value does the source give for `CC(C)(C1CCN(C(=O)Nc2cn[nH]c2)CC1)S(=O)(=O)c1cccc(F)c1` [Compound 146, 4-(2-((3-fluorophenyl)sulfonyl)propan-2-yl)-N-(1H-pyrazol-4-yl)piperidine-1-carboxamide] here?
Answer: Its value is “++ (++ represents myosin activation value AC20 from 2 μM-5 μM)”.

Question: Which “Myosin Activation (AC20)” value does the source give for `CC(C)(C1CCN(C(=O)Nc2cc[nH]n2)CC1)S(=O)(=O)c1cccc(F)c1` [Compound 147, 4-(2-((3-fluorophenyl)sulfonyl)propan-2-yl)-N-(1H-pyrazol-3-yl)piperidine-1-carboxamide] here?
Answer: The value was “+ (+ represents myosin activation value AC20 > 5 μM)”.

Question: With `Cn1cncc1S(=O)(=O)C(C)(C)C1CCN(C(=O)Nc2ccnnc2)CC1` [Compound 148, 4-(2-((1-methyl-1H-imidazol-5-yl)sulfonyl)propan-2-yl)-N-(pyridazin-4-yl)piperidine-1-carboxamide] as the compound, how does the “Myosin Activation (AC20)” value read?
Answer: Its value is “+ (+ represents myosin activation value AC20 > 5 μM)”.

Question: How did the “Myosin Activation (AC20)” value turn out when `CC(C)(C1CCN(C(=O)Nc2ccnc(F)c2)CC1)S(=O)(=O)c1cccc(F)c1` [Compound 151, 4-(2-((3-fluorophenyl)sulfonyl)propan-2-yl)-N-(2-fluoropyridin-4-yl)piperidine-1-carboxamide] was run?
Answer: The value was “++ (++ represents myosin activation value AC20 from 2 μM-5 μM)”.

Question: How did the “Myosin Activation (AC20)” value turn out when `CC(C)(C1CCN(C(=O)Nc2ccc(F)nc2)CC1)S(=O)(=O)c1cccc(F)c1` [Compound 152, 4-(2-((3-fluorophenyl)sulfonyl)propan-2-yl)-N-(6-fluoropyridin-3-yl)piperidine-1-carboxamide] was run?
Answer: The value was “++ (++ represents myosin activation value AC20 from 2 μM-5 μM)”.

Question: With `CC(C)(C1CCN(C(=O)Nc2nnco2)CC1)S(=O)(=O)c1cccc(F)c1` [Compound 153, 4-(2-((3-fluorophenyl)sulfonyl)propan-2-yl)-N-(1,3,4-oxadiazol-2-yl)piperidine-1-carboxamide] as the compound, how does the “Myosin Activation (AC20)” value read?
Answer: The value was “+ (+ represents myosin activation value AC20 > 5 μM)”.

Question: How did the “Myosin Activation (AC20)” value turn out when `Cc1cc(NC(=O)N2CCC(C(C)(C)S(=O)(=O)c3cn(C)nc3C(F)F)CC2)cnn1` [Compound 154, 4-(2-((3-(difluoromethyl)-1-methyl-1H-pyrazol-4-yl)sulfonyl)propan-2-yl)-N-(6-methylpyridazin-4-yl)piperidine-1-carboxamide] was run?
Answer: The value was “+ (+ represents myosin activation value AC20 > 5 μM)”.

Question: How did the “Myosin Activation (AC20)” value turn out when `Cc1ccc(NC(=O)N2CCC(C(C)(C)S(=O)(=O)c3cn(C)nc3C(F)F)CC2)cn1` [Compound 155, 4-(2-((3-(difluoromethyl)-1-methyl-1H-pyrazol-4-yl)sulfonyl)propan-2-yl)-N-(6-methylpyridin-3-yl)piperidine-1-carboxamide] was run?
Answer: The value was “++ (++ represents myosin activation value AC20 from 2 μM-5 μM)”.

Question: `CC(C)(C1CCN(C(=O)Nc2nccs2)CC1)S(=O)(=O)c1cccc(F)c1` [Compound 156, 4-(2-((3-fluorophenyl)sulfonyl)propan-2-yl)-N-(thiazol-2-yl)piperidine-1-carboxamide] was tested. Which “Myosin Activation (AC20)” value did it give?
Answer: Its value is “+ (+ represents myosin activation value AC20 > 5 μM)”.

Question: How did the “Myosin Activation (AC20)” value turn out when `Cn1cc(S(=O)(=O)C(C)(C)C2CCN(C(=O)Nc3cnoc3)CC2)c(C(F)F)n1` [Compound 157, 4-(2-((3-(difluoromethyl)-1-methyl-1H-pyrazol-4-yl)sulfonyl)propan-2-yl)-N-(isoxazol-4-yl)piperidine-1-carboxamide] was run?
Answer: Its value is “+++ (+++ represents myosin activation value AC20 < 2 μM)”.

Question: For `CC(C)(C1CCN(C(=O)Nc2cnoc2)CC1)S(=O)(=O)c1cccc(F)c1` [Compound 158, 4-(2-((3-fluorophenyl)sulfonyl)propan-2-yl)-N-(isoxazol-4-yl)piperidine-1-carboxamide], which “Myosin Activation (AC20)” value is on record?
Answer: The value was “+++ (+++ represents myosin activation value AC20 < 2 μM)”.

From patent US11123337B2, “4-methylsulfonyl-substituted piperidine urea compounds” (MYOKARDIA, INC., priority 2015, dated 2021)
